In publication PMC9830863, “Aspergillus Niger thermostable Cytosine deaminase-dextran conjugates with enhanced structure stability, proteolytic resistance, and Antiproliferative activity” (BMC Microbiology, 2023):
Read-outs that look alike come from different tables or passages of the source.

Experiments:
Cytosine deaminase (CDA) [1] = settings: read-out: Free CDA / Km; free enzyme; Tris-HCl 50 mM pH 7.0, 37 °C
Text: deamination, released 5-fluorouracil on Cytosine deaminase (CDA)

Cytosine deaminase (CDA) [2] = settings: read-out: Free CDA / Km; free enzyme; Tris-HCl 50 mM pH 7.0, 37 °C; remark: listed apart in the source

| Structure (SMILES) | Km (Cytosine deaminase (CDA) [1]) [µM] | Km (Cytosine deaminase (CDA) [2]) [µM] |
| --- | --- | --- |
| Nc1nc(=O)[nH]cc1F [5-fluorocytosine] | 220 |  |
| Nc1cc[nH]c(=O)n1 [Cytosine] |  | 360 |
